Laboratory results reported in PMC11149885 (PLOS ONE, 2024).
Values joined by “and” are separate entries in the source; they are usually repeats but may differ in a detail not shown here. Equal values may be shown once.

Tests used:
VEGFR2 [1] = target: T1, VEGFR2 (Homo sapiens, UniProt P35968); experiment: HotSpot kinase screen; type: biochemical; details: 10μM ATP
T1 construct: purchased Millipore Corporation (Dundee, Scotland) or Reaction Biology Corporation (contract assay)

FGFR2 = target: T2, FGFR2 (Homo sapiens, UniProt P21802); experiment: HotSpot kinase screen; type: biochemical; details: 10μM ATP
T2 construct: purchased Reaction Biology Corporation (contract assay)
Experimental: (§1) Measurement of kinase activity was performed by Reaction Biology Corporation (Reaction Biology Corporation, Malvern, PA), using the HotSpot™ assay. The screen focused on RTKs reported in the literature to play a major role in the regulation of angiogenesis (VEGFR1, VEGFR2, and VEGFR3; fibroblast growth factor receptor [FGFR] 1, 2, and 3; and platelet-derived growth factor receptor beta [PDGFRβ]) as well as an RTK essential for maintaining blood vessel stability (TIE2). For the profiling, specific kinase/substrate pairs and required cofactors were prepared in a reaction buffer (20mM Hepes [pH 7.5], 10mM MgCl2, 1mM EGTA, 0.02% Brij35, 0.02 mg/mL BSA, 0.1mM Na3VO4, 2mM DTT, 1% dimethyl sulfoxide [DMSO]). TKI compounds were diluted to 10μM and 1μM concentrations for the screens and after addition to the reaction buffer incubated for 20 minutes, followed by the addition of a mixture of ATP (Sigma, St. Louis, MO) and ^33P-ATP (Perkin Elmer, Waltham, MA) to a final ATP concentration of 10μM. Reactions were carried out at room temperature for 2 hours, followed by spotting of the reactions onto P81 ion exchange filter paper (Whatman Inc., Piscataway, NJ). Unbound phosphate was removed by extensive washing of the filters. […] Kinome TREEspot images representing levels of inhibition were prepared using Kinome Mapper (https://www.reactionbiology.com/resources/tools/kinase-mapper).

VEGFR3 [2] = target: T3, VEGFR3 (Homo sapiens, UniProt P35916); experiment: HotSpot kinase screen; type: biochemical; details: 10μM ATP
T3 construct: purchased Millipore Corporation (Dundee, Scotland) or Reaction Biology Corporation (contract assay)
Experimental: as §1

VEGFR2 [3] = target: T1, VEGFR2; experiment: Ten-dose IC50 measurement; type: biochemical; details: 10μM ATP
VEGFR3 [4] = target: T3, VEGFR3; experiment: Ten-dose IC50 measurement; type: biochemical; details: 10μM ATP
[5] = test system: VEGF-A–induced sprouting of HUVECs; experiment: HUVEC spheroid sprouting assay; type: cell-based, human; details: for cumulative sprout length per spheroid (CSL), mean: 25 ng/mL VEGF-165, 24 hours
Experimental: The three TKI compounds were tested by Reaction Biology Europe (Freiburg, Germany) in the spheroid-based cellular angiogenesis assay to determine their effect on VEGF-A–induced sprouting of HUVECs. Primary HUVECs from pooled donors at passage 3 to 4 (PromoCell, Heidelberg, Germany) were grown in endothelial cell growth and basal medium (ECGM/ECBM, PromoCell). Test compounds were prepared as 100-fold concentrated stock solutions in DMSO and pre-diluted in basal medium. HUVECs were stimulated using 25 ng/mL VEGF-165 (Reaction Biology Europe, Freiburg, Germany) pre-diluted in basal medium.
Spheroids were prepared as described by pipetting 400 HUVECs in a hanging drop on plastic dishes to allow overnight spheroid aggregation. Fifty HUVEC spheroids were seeded in 0.9 mL of a collagen gel and pipetted into individual wells of a 24-well plate to allow polymerization. Test compounds and VEGF-165 were added after 30 minutes by pipetting 100 μL of a ten-fold concentrated solution onto the polymerized gel. Plates were incubated at 37°C for 24 hours, and cells were fixed by adding 4% paraformaldehyde (Roth, Karlsruhe, Germany). Sprouting intensity of HUVEC spheroids treated with the test samples was quantitated using an image analysis system to determine the cumulative sprout length (CSL) per spheroid. Images of single spheroids were captured using an inverted microscope and the digital imaging software NIS-Elements BR 3.0 (Nikon). Spheroid pictures were uploaded to Wimasis (www.wimasis.com) for image analysis. The CSL of each spheroid was determined using the imaging analysis tool WimSprout. The mean CSL of ten randomly selected spheroids was analyzed as an individual data point.

VEGFR1 [6] = target: T4, VEGFR1 (Homo sapiens, UniProt P17948)
TIE2 [7] = target: T5, TIE2 (Homo sapiens, UniProt Q02763)
VEGFR1 [8] = target: T4, VEGFR1; experiment: Ten-dose IC50 measurement; details: 10μM ATP
TIE2 [9] = target: T5, TIE2; experiment: Ten-dose IC50 measurement; details: 10μM ATP
TIE2 [10] = target: T5, TIE2; experiment: HotSpot kinase screen; type: biochemical; parameters: purchased Reaction Biology Corporation (contract assay); details: 10μM ATP
[11] = test system: VEGF-induced angiogenesis on the CAM; experiment: Gelatin sponge chick chorioallantoic membrane (CAM) assay
VEGFR1 [12] = target: T4, VEGFR1; experiment: HotSpot kinase screen; type: biochemical; parameters: purchased Millipore Corporation (Dundee, Scotland) or Reaction Biology Corporation (contract assay); details: 10μM ATP
Experimental: as §1

T3 sequence (P35916 25-1363): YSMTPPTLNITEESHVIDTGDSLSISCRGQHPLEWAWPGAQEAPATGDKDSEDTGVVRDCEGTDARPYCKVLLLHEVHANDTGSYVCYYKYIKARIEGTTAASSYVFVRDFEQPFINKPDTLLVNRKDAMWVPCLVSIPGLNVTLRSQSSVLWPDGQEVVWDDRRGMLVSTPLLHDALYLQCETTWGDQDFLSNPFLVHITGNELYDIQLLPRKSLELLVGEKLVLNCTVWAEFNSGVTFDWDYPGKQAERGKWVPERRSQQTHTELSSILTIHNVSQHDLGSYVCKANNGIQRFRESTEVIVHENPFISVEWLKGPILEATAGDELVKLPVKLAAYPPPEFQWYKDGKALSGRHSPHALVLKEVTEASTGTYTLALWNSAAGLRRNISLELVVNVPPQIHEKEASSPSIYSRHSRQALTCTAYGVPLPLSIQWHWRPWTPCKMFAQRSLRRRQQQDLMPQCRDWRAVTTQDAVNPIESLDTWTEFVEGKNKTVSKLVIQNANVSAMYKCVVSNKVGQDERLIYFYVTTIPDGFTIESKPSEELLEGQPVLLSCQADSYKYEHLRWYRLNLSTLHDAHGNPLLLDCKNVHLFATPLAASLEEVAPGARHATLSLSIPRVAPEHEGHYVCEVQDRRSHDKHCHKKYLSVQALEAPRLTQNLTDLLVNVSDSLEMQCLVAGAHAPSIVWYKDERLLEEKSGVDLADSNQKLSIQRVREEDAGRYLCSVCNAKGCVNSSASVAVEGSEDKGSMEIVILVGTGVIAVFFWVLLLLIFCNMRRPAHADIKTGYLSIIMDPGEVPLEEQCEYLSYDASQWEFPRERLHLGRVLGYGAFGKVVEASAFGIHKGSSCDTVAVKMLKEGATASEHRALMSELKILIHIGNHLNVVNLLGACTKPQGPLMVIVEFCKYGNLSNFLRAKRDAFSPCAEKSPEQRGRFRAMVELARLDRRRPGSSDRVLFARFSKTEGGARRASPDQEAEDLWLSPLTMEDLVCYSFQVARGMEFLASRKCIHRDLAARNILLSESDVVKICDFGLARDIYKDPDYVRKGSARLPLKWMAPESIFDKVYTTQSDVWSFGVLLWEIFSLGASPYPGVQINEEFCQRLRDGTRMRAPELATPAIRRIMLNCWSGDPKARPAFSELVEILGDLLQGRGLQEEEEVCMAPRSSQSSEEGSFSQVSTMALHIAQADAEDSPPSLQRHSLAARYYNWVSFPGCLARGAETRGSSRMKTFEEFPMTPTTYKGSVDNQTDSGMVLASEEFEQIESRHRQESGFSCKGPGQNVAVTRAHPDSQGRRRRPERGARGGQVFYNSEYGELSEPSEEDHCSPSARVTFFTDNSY
T4 sequence (P17948 27-1338): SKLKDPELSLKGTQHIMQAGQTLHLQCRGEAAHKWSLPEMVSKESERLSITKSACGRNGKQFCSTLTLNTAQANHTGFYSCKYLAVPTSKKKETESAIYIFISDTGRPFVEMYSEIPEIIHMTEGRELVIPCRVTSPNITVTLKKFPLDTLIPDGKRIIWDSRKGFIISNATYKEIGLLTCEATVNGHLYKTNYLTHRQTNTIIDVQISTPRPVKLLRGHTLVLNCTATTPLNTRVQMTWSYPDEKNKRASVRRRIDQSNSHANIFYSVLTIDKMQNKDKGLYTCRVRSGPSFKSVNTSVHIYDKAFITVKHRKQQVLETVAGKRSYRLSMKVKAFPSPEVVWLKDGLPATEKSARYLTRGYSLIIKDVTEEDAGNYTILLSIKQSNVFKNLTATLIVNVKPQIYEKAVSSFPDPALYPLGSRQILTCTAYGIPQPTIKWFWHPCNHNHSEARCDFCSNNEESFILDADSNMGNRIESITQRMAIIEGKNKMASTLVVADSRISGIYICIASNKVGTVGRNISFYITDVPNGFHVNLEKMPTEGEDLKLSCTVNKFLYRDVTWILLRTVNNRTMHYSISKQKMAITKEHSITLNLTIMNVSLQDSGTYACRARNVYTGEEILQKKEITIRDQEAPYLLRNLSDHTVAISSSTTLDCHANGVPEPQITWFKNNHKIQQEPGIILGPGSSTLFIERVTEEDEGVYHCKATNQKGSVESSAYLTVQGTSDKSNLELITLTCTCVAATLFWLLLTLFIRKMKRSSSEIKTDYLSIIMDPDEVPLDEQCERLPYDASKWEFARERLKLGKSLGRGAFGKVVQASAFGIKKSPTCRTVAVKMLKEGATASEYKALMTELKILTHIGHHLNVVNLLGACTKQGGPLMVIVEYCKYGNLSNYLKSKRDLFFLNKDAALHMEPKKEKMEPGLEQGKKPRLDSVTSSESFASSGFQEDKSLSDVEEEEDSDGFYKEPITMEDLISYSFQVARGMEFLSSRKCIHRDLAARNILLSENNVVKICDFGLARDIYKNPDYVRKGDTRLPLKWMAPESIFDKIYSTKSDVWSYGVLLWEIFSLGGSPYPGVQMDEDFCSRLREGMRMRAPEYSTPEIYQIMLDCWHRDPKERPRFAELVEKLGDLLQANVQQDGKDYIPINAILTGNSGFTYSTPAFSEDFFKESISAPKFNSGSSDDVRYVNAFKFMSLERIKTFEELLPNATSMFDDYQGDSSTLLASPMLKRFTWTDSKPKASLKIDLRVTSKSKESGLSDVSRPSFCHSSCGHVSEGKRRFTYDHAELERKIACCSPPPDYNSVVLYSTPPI
T5 sequence (Q02763 23-1124): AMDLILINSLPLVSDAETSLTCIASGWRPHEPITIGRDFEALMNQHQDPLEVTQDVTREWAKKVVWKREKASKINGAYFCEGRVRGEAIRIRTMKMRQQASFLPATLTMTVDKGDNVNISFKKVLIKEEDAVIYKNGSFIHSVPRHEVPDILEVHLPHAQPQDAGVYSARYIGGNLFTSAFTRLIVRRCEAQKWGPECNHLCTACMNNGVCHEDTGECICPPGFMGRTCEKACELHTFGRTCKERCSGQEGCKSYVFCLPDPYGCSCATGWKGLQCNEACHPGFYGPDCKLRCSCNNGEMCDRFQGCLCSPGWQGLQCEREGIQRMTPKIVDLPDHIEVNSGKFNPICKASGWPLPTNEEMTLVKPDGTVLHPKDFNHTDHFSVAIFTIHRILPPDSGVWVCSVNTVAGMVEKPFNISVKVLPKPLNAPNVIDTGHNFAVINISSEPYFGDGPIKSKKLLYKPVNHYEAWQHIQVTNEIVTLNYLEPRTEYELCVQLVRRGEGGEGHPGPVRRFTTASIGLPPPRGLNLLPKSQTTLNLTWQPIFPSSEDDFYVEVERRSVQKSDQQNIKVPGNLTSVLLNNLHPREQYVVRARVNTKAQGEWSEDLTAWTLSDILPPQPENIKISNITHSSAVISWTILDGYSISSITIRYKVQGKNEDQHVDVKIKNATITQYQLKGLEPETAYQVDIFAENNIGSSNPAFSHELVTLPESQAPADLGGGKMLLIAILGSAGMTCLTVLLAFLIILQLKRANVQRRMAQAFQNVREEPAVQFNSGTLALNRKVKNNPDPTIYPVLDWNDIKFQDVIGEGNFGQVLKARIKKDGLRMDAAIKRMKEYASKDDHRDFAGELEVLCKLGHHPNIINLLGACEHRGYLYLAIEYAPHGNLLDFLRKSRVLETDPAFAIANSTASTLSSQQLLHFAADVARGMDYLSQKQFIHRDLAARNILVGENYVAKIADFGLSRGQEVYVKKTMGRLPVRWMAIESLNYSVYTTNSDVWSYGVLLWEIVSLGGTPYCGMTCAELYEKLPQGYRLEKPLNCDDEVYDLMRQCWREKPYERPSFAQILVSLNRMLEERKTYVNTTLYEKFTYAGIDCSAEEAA
T1 sequence (P35968 20-1356): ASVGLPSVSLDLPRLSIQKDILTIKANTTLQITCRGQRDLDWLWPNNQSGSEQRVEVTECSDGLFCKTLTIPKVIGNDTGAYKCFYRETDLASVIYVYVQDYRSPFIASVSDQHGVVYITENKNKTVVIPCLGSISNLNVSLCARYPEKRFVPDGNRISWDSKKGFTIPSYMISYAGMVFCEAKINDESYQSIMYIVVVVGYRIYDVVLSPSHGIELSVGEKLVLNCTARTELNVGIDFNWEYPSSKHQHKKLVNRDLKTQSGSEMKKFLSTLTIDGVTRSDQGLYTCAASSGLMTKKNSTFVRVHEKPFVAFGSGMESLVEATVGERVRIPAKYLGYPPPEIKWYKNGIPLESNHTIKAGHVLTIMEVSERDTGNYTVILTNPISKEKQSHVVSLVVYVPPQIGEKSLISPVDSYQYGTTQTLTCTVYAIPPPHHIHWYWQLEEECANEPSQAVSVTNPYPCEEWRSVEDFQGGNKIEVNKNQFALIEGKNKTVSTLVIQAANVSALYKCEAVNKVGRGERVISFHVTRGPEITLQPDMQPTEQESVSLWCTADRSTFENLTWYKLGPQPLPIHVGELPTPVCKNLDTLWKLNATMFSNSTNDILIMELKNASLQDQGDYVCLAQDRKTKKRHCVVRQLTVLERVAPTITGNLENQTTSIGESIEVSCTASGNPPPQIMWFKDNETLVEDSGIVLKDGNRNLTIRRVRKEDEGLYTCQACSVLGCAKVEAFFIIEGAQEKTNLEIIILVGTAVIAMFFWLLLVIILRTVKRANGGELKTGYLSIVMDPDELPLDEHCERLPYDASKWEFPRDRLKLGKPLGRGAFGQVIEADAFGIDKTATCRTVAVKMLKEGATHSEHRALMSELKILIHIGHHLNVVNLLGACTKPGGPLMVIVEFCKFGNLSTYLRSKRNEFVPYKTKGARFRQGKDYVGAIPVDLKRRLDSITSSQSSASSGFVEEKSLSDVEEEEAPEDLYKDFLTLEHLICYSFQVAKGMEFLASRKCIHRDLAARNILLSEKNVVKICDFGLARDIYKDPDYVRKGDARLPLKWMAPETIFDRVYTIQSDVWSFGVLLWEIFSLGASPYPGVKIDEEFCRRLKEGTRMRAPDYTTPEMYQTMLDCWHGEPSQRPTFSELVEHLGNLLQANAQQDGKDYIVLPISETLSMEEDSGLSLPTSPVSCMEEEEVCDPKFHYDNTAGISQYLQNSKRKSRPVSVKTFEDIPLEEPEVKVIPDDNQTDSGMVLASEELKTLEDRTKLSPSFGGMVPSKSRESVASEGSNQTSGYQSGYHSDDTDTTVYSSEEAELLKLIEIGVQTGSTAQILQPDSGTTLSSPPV

CNC(=O)c1ccccc1Sc1ccc2c(/C=C/c3ccccn3)n[nH]c2c1 [Axitinib]
Avg % Inhibition VEGFR2 (VEGFR2 [1]; 1uM TKI): 100%
Avg % Inhibition VEGFR2 (VEGFR2 [1]; 10uM TKI): 90.96%
Avg % Inhibition FGFR2 (FGFR2; 1uM TKI): 93.95%
Avg % Inhibition FGFR2 (FGFR2; 10uM TKI): 98.81%
Avg % Inhibition VEGFR3 (VEGFR3 [2]; 1uM TKI): 97.27%
Avg % Inhibition VEGFR3 (VEGFR3 [2]; 10uM TKI): 99.21%
%Activity VEGFR2 (VEGFR2 [3]; 1.00E-05 M TKI): 7.43%
%Activity VEGFR2 (VEGFR2 [3]; 1.11E-06 M TKI): 4.53%
%Activity VEGFR2 (VEGFR2 [3]; 1.23E-07 M TKI): 7.10%
%Activity VEGFR2 (VEGFR2 [3]; 1.37E-08 M TKI): 13.24%
%Activity VEGFR2 (VEGFR2 [3]; 1.52E-09 M TKI): 62.16%
%Activity VEGFR2 (VEGFR2 [3]; 3.33E-06 M TKI): 6.81%
%Activity VEGFR2 (VEGFR2 [3]; 3.70E-07 M TKI): 7.21%
%Activity VEGFR2 (VEGFR2 [3]; 4.12E-08 M TKI): 8.44%
%Activity VEGFR2 (VEGFR2 [3]; 4.57E-09 M TKI): 25.12%
%Activity VEGFR2 (VEGFR2 [3]; 5.08E-10 M TKI): 84.02%
HillSlope VEGFR2 (VEGFR2 [3]; IC50 curve fit): -1.18
%Activity VEGFR3 (VEGFR3 [4]; 1.00E-05 M TKI): 2.02%
%Activity VEGFR3 (VEGFR3 [4]; 1.11E-06 M TKI): 2.44%
%Activity VEGFR3 (VEGFR3 [4]; 1.37E-08 M TKI): 28.96%
%Activity VEGFR3 (VEGFR3 [4]; 1.52E-09 M TKI): 56.16%
%Activity VEGFR3 (VEGFR3 [4]; 3.33E-06 M TKI): 1.23%
%Activity VEGFR3 (VEGFR3 [4]; 3.70E-07 M TKI): 5.72%
%Activity VEGFR3 (VEGFR3 [4]; 4.57E-09 M TKI): 40.16%
%Activity VEGFR3 (VEGFR3 [4]; 5.08E-10 M TKI): 63.17%
cumulative sprout length per spheroid (CSL), mean ([5]; 1.00E-05 M TKI): 259
cumulative sprout length per spheroid (CSL), mean ([5]; 1.00E-06 M TKI): 441
cumulative sprout length per spheroid (CSL), mean ([5]; 1.00E-07 M TKI): 459
cumulative sprout length per spheroid (CSL), mean ([5]; 3.00E-06 M TKI): 354
cumulative sprout length per spheroid (CSL), mean ([5]; 3.00E-07 M TKI): 373
cumulative sprout length per spheroid (CSL), mean ([5]; 3.00E-08 M TKI): 379
vessel sprouting (representative spheroid images) ([5]; highest test concentration of 1×10^–5M): zero vessel sprouting
activity (VEGFR1 [6]): 5.07%
activity (TIE2 [7]): 60.1%
%Activity VEGFR1 (VEGFR1 [8]; 1.00E-05 M TKI): -0.87%
%Activity VEGFR1 (VEGFR1 [8]; 1.11E-06 M TKI): -0.31%
%Activity VEGFR1 (VEGFR1 [8]; 1.37E-08 M TKI): 18.99%
%Activity VEGFR1 (VEGFR1 [8]; 1.52E-09 M TKI): 42.18%
%Activity VEGFR1 (VEGFR1 [8]; 3.33E-06 M TKI): -0.89%
%Activity VEGFR1 (VEGFR1 [8]; 4.12E-08 M TKI): 9.96%
%Activity VEGFR1 (VEGFR1 [8]; 4.57E-09 M TKI): 22.02%
%Activity VEGFR1 (VEGFR1 [8]; 5.08E-10 M TKI): 59.50%
%Activity TIE2 (TIE2 [9]; 1.00E-05 M TKI): 10.50%
%Activity TIE2 (TIE2 [9]; 1.11E-06 M TKI): 16.32%
%Activity TIE2 (TIE2 [9]; 1.37E-08 M TKI): 87.12%
%Activity TIE2 (TIE2 [9]; 1.52E-09 M TKI): 98.75%
%Activity TIE2 (TIE2 [9]; 3.33E-06 M TKI): 7.06%
%Activity TIE2 (TIE2 [9]; 3.70E-07 M TKI): 38.01%
%Activity TIE2 (TIE2 [9]; 4.12E-08 M TKI): 78.65%
%Activity TIE2 (TIE2 [9]; 4.57E-09 M TKI): 95.05%
%Activity TIE2 (TIE2 [9]; 5.08E-10 M TKI): 95.58%
Avg % Inhibition TIE2 (TIE2 [10]; 1uM TKI): 81% and 81.47%
Avg % Inhibition TIE2 (TIE2 [10]; 10uM TKI): 89% and 89.11%
Avg % Inhibition TIE2 (TIE2 [10]; 10uM TKI, listed as axitinib): up to 89%
Angiogenesis - Vessel number, Mean ([11]; TKI at 200 x VEGFR2 IC50): 11.1
Angiogenesis - Vessel number, individual egg ([11]; TKI at 200 x VEGFR2 IC50, one value per egg): 9.33 and 12.67 and 12 and 10.33
reduction of the number of blood vessels perfusing the sponges vs negative control ([11]; TKI at VEGFR2 IC50 dose): 24.6%
Angiogenesis - Vessel thickness score, Mean ([11]; TKI at VEGFR2 IC50 dose, score 0-3): 0.9
Angiogenesis - Vessel thickness score, individual egg ([11]; TKI at VEGFR2 IC50 dose, score 0-3, one value per egg): 0.33 and 1.33 and 0 and 1.67
Avg % Inhibition VEGFR1 (VEGFR1 [12]; 1uM TKI): 100%
Avg % Inhibition VEGFR1 (VEGFR1 [12]; 10uM TKI): 97.53%
